Key:
Type in all cases: cell-based
B16-Ras cells [1] = assay: Levels of microvesicular MMP-2 in microvesicles from conditioned media (immunoblot); details: 50 μM, 48 h, serum-starved B16-Ras cells
Experimental: (§1) Cells were washed with phosphate-buffered saline (PBS) and lysed in ice-cold radioimmunoprecipitation assay (RIPA) buffer [25 Mm Tris-HCl (pH 7.2), 0.1% SDS, 0.1% Triton X-100, 1% sodium deoxycholate, 150 mM NaCl, 1 mM EDTA, 1 mM sodium orthovanadate, 1 mM phenylmethylsulfonyl fluoride, 10 μg/ml aprotinin, 5 μg/ml leupeptin, 25 mM β-glycerophosphate, 5 mM sodium orthovanadate, and 5 mM sodium fluoride]. The protein concentrations were determined with a BCA protein assay kit (Pierce, Rockford, Ill., USA). Fifty micrograms of each protein sample was loaded onto SDS-polyacrylamide gel. Proteins were transferred to nitrocellulose membranes (Amersham Pharmacia, Buckinghamshire, UK). The membrane was blocked in blocking buffer [1% bovine serum albumin (BSA), 50 mM Tris-HCl (pH 7.6), 150 mM NaCl, and 0.1% Tween-20] at room temperature for 1 h. The blots were then incubated with primary antibodies at 4° C. overnight followed by incubation with secondary antibodies conjugated to horseradish peroxidase for 1 h. The levels of protein were detected by Forte Western HRP Substrate (Millipore Corp., Billerica, Mass., USA) according to the manufacturer's instructions.
Microvesicles were prepared from conditioned media or sera by size exclusion chromatography and ultracentrifugation. […] Fractions (1 ml) were collected, and the protein content was monitored by measuring absorbance at 280 nm. […]

B16-Ras cells [2] = assay: CSE1L in cell lysates and conditioned media by immunoblotting; details: 50 μM, 24 h
Experimental: as §1, with “The membrane was blocked in blocking buffer [1% bovine serum albumin (BSA), 50 mM Tris-HCl (pH 7.6), 150 mM NaCl, and 0.1% Tween-20] at room temperature for 1 h. The blots were then incubated with primary antibodies at 4° C. overnight followed by incubation with secondary antibodies conjugated to horseradish peroxidase for 1 h.” left out
For Immunoblotting with biotin-conjugated antibodies, the biotin-conjugated antibody was prepared by biotinylating anti-CSE1L antibodies using the Biotin Labeling Kit-NH2 kit according to the manufacturer's protocol (Dojindo Laboratories, Kumamoto, Japan). The Immunoblot was then reacted with horseradish peroxidase (HRP)-conjugated streptavidin and the levels of protein were detected by Forte Western HRP Substrate. […]

B16-Ras cells [3] = assay: Threonine phosphorylated CSE1L by immunoprecipitation and immunoblotting; details: 50 μM, 24 h
Experimental: Cells grown on plastic dishes were washed with PBS and incubated in immunoprecipitation lysis buffer [10 mM Tris-HCl (pH 7.4), 10 mM EDTA, 0.4% deoxycholic acid, 0.5% Triton X-100, 1 mM phenylmethylsulfonyl fluoride, 10 μg/ml aprotinin, 5 μg/ml leupeptin, 25 mM β-glycerophosphate, 5 mM sodium orthovanadate, and 5 mM sodium fluoride] at 4° C. for 20 min. Cells were scraped and disrupted by pipetting. The cell lysate was cleared of insoluble materials by centrifugation at 12,000 g for 10 min at 4° C., and the protein concentrations were determined with a BCA protein assay kit (Pierce). […]
(A) Levels of cellular threonine phosphorylated CSE1L in B16-dEV cells and B16-Ras cells treated with DMSO or 50 μM PD98059 for 24 h were analyzed by immunoprecipitation with anti-CSE1L antibodies and immunoblotting with HRP-conjugated anti-phosphothreonine antibodies. […] (B) Levels of secretory threonine phosphorylated CSE1L in cell number-standardized conditioned media harvested from serum-starved B16-dEV cells and B16-Ras cells treated with DMSO or 50 μM PD98059 for 24 h were analyzed by immunoprecipitation with anti-CSE1L antibodies and immunoblotting with HRP-conjugated anti-phosphothreonine antibodies. […] (D) The levels of CSE1L in the pool of cancer sera and normal sera were analyzed by immunoblotting with anti-CSE1L antibodies (clone 24).

B16-Ras cells [4] = assay: Gelatin zymography assay of microvesicular MMP-2; details: 50 μM PD98059, or stable CSE1L shRNA transfection; microvesicles from conditioned media of serum-starved cells
Experimental: Microvesicles harvested from cell number-standardized conditioned media were resolved using 10% SDS-PAGE containing 1 mg/ml gelatin. The gel was washed twice with 2.5% Triton X-100 for 30 min to remove SDS, and subsequently incubated in buffer containing 50 mM Tris-HCl (pH 7.6), 200 mM NaCl, and 10 mM CaCl2 at 37° C. for 24 h. The gel was stained with Comassie blue R-250 (0.125% Comassie blue R-250, 50% methanol, 10% acetic acid) for 30 min and destained with destaining solution (20% methanol, 10% acetic acid, 70% ddH2O) until the clear bands were visualized.
(A) Gelatin zymographic activities of MMP-2 in microvesicles harvested form the cell number-standardized conditioned media of serum-starved B16-dEV, B16-Ras, B16-CSE1L, and B16-Ras/anti-CSE1L cells treated with or without DMSO or 50 μM PD98059 for 48 h as indicated. (B) The in vitro invasion abilities of B16-dEV, B16-Ras, B16-CSE1L, and B16-Ras/anti-CSE1L cells analyzed by Matrigel-based invasion assays. The mean±SD numbers of invasive cells were 109.4±12.6, 406.8±23.9, 311.25±32.4, and 46.75±8.7 cells per field for B16-dEV, B16-CSE1L, B16-Ras, and B16-Ras/anti-CSE1L cells, respectively.

[5] = conditioned media of serum-starved B16-Ras cells

SMILES: COc1cccc(-c2cc(=O)c3ccccc3o2)c1N [PD98059]
- Effect on v-H-ras-induced increase in microvesicular MMP-2 (B16-Ras cells [1]): attenuated v-H-ras-induced increase in MMP-2 in microvesicles
- Effect on CSE1L expression in cells (B16-Ras cells [2]; cell lysates): did not obviously affect CSE1L expression in cells
- Effect on v-H-ras-induced increase in CSE1L secretion (B16-Ras cells [2]; [5]): attenuated v-H-ras-induced increase in CSE1L secretion
- Effect on v-H-ras-increased threonine phosphorylation of cellular CSE1L (B16-Ras cells [3]; cell lysates of B16-Ras cells): inhibited v-H-ras-increased threonine phosphorylation in CSE1L
- Effect on v-H-ras-increased secretion of threonine phosphorylated CSE1L (B16-Ras cells [3]; [5]): inhibited v-H-ras-increased secretion of threonine phosphorylated CSE1L
- Effect on v-H-ras-induced increase in zymographic activity of microvesicular MMP-2 (B16-Ras cells [4]): attenuated the v-H-ras-induced increase in the zymographic activity of microvesicular MMP-2

— patent US10172963B2, “Method of binding a CSE1L tumor marker in a tumor of an animal” (priority 2011, dated 2019)
